Measurements published in US4464389A, “Esters of retinoic acid and pentaerythritol and monobenzal acetals thereof” (SRI International, priority 1982, dated 1984).

How the values were obtained:
Ornithine Decarboxylase = assay: Inhibition of induction of ornithine decarboxylase (ODC) by 12-O-tetradecanoylphorbol-13-acetate in mouse skin; type: in vivo; conditions: topical, 1 hour before TPA (17 nmol)
Protocol: (§1) The ODC assay measures a compound's effect on the prevention of the induction of ODC. The tracheal organ culture assay measures a compound's ability to reverse keratinization.
The ODC assay is carried out as follows. Female Charles River CD-1 mice from Charles River Breeding Laboratories, Wilmington, Mass., are used (age 7 to 9 weeks). The dorsal hair of the mice is shaved 1 to 2 days before testing, and only mice showing no hair regrowth are used. A single dose of 12-O-tetradecanoylphorbol-13-acetate (TPA) (10.5 μg, 17 nmol) in 0.2 mL of acetone is applied topically to the back of each mouse. The test compound, at one of three dose levels (1.7, 17, and 170 nmol), dissolved in 0.2 mL of acetone is applied 1 hour before the TPA treatment to the test groups; the control group is treated with acetone alone. The mice are killed by cervical dislocation five hours after TPA treatment. Determinations are done in triplicate.
The epidermis is obtained from the sacrificed animals. To obtain sufficient material, the dorsal skins from 2 to 3 mice in each treatment group are pooled. The depilatory agent Nudit® (Helena Rubinstein, New York) is applied to the shaved area of the skin; after 5 minutes, it is washed off thoroughly with cold tap water. Then the skin is excised and plunged immediately into ice-cold water; it is then placed in a 55° C. water bath for 30 seconds and reimmersed in ice-cold water for at least another 30 seconds. The skin is placed epidermis side up on a cold plate, and the epidermis is scraped off with a razor blade. The pooled epidermal sheets are homogenized (Polytron PT-10 homogenizer) at 0° to 4° C. for 15-20 seconds in 50 mM sodium phosphate buffer (pH 7.2) containing 0.1 mM pyridoxal phosphate and 0.1 mM ethylenediaminetetraacetic acid (EDTA), at a volume of 1 mL/skin.
The supernatant fraction remaining after centrifugation of the homogenate at 10,000×g for 30 seconds at 0° C. is used for the enzyme assay. Enzyme activity is determined using the microassay for ODC as described by Verma and Boutwell to measure the release of ^14 CO2 from DL-[1-^14 C]-ornithine (58 mCi/mmol) after incubation with the 10,000×g supernatant. The incubations are carried out by decanting, with a Pasteur pipette, 100 μL of the supernatant containing 100 to 120 μg of protein into two or three 15-mL Corex tubes in a shaking water bath at 37° C. The assay mixture in the tubes consists of 50 μL of 100 mM sodium phosphate buffer (pH 7.2), 10 μL of 4 mM pyridoxal phosphate, 40 μL of 25 mM dithiothreitol, and 1 μL of 0.1M EDTA. The center wells in the tubes are filled with 200 μL of a 2:1 solution (v/v) of ethanolamine:2-methoxyethanol. The reaction is started by adding 50 μL of substrate (0.5 μCi of DL-[1-^14 C]-ornithine in 2 mM cold ornithine) at 1-minute intervals by injection to each of the stoppered tubes. Incubations are routinely carried out at 37° C. for 30 to 60 minutes. The reaction is stopped by addition of 0.5 ml of 2M citric acid, and incubation is continued for an additional hour without heating to ensure complete absorption of ^14 CO2.
Radioactivity is measured using a toluene-based scintillant (4 g of PPO and 50 mg of POPOP/L of toluene) in a Beckman LS-250 liquid scintillation counter. Enzyme activity is determined in triplicate and expressed as nanomoles of CO2 released in 30 minutes per milligram of protein. Enzyme activity is linear for the protein concentration used. The protein concentrations of the epidermal extracts are determined by the Lowry procedure, using bovine serum albumin as the standard.

[1] = tested on: Hamster Tracheal Organ Culture (keratinization); assay: Reversal of keratinization in hamster tracheal organ culture; type: cell-based
Protocol: as §1
The tracheal organ culture assay is carried out as follows. Tracheas are taken from hamsters that are in very early stages of vitamin A deficiency and placed in organ culture. At the time of culture, the animals are still gaining weight; the tracheal epithelium is generally low columnar or cuboidal, with only occasional patches of squamous metaplasia. Each trachea is opened from the larynx to the carina along the membranous dorsal wall and cultured in a serum-free medium (CMRL-1066; with crystalline bovine insulin, 0.1 μg/ml; hydrocortisone hemisuccinate, 0.1 μg/ml; glutamine, 2 mM; penicillin, 100 units/ml; and streptomycin,100 μg/ml, added). Cultures are gassed with 50% oxygen, 45% nitrogen, and 5% CO2. The culture dishes are rocked at 35.5-36.0 degrees to allow the tracheas contact with both gas and medium. All tracheas are grown in medium containing no retinoid for the first 3 days. At the end of 3 days, some tracheas are harvested; almost all of these tracheas have significant squamous metaplasia, and approximately 60% have keratinized lesions. The remaining tracheas are then divided into different groups which are treated with either: (1) retinoid dissolved in dimethylsulfoxide (final concentration of DMSO in culture medium is never greater than 0.1%) or (2) an equivalent amount of DMSO alone. Culture medium is changed three times a week, and all of the remaining tracheas are harvested at the end of 10 days in culture. Tracheas are fixed in 10% buffered formalin and embedded in paraffin. Cross sections of five micrometers are made through the mid-portion, stained with hematoxylin and eosin, and then scored with a microscope for the presence of keratin and keratohyaline granules, both of which are found in approximately 90% of control cultures that receive no retinoid for the entire 10 day culture period.

Structure (SMILES) | Inhibition of Induction of Ornithine Decarboxylase by TPA, % Inhibition of Control (Ornithine Decarboxylase; Dose 1.7 nmol) [%] | Inhibition of Induction of Ornithine Decarboxylase by TPA, % Inhibition of Control (Ornithine Decarboxylase; Dose 17 nmol) [%] | Reversal of Keratinization, Active/Total Cultures ([1]; Conc 10^-8 M) | Reversal of Keratinization, Active/Total Cultures (%) ([1]; Conc 10^-8 M) | Reversal of Keratinization, Active/Total Cultures ([1]; Conc 10^-9 M) | Reversal of Keratinization, Active/Total Cultures (%) ([1]; Conc 10^-9 M) | Reversal of Keratinization, Active/Total Cultures ([1]; Conc 10^-10 M) | Reversal of Keratinization, Active/Total Cultures (%) ([1]; Conc 10^-10 M) | Reversal of Keratinization, Active/Total Cultures ([1]; Conc 10^-11 M) | Reversal of Keratinization, Active/Total Cultures (%) ([1]; Conc 10^-11 M)
CC1=C(/C=C/C(C)=C/C=C/C(C)=C/C(=O)OCC(CO)(CO)CO)C(C)(C)CCC1 [Example 2, Pentaerythritol Monoretinoate] | 35 | 43 | 13/13 | 100 | 15/15 | 100 | 18/25 | 72 | 5/11 | 45
CC1=C(/C=C/C(C)=C/C=C/C(C)=C/C(=O)OC[C@]2(CO)CO[C@H](c3ccccc3)OC2)C(C)(C)CCC1 [Example 1 (Isomer (3)), (E)-2α-Phenyl-5β-hydroxymethyl-5α-retinoyloxymethyl-1,3-dioxane] | 47 | 57 | 13/13 | 100 | 18/18 | 100 | 7/19 | 37 | 2/6 | 33
CC1=C(/C=C/C(C)=C/C=C/C(C)=C/C(=O)OC[C@]2(CO)CO[C@@H](c3ccccc3)OC2)C(C)(C)CCC1 [Example 1 (Isomer (2)), (E)-2α-Phenyl-5α-hydroxymethyl-5β-retinoyloxymethyl-1,3-dioxane] | 40 | 49 | 13/13 | 100 | 17/18 | 94 | 9/18 | 50 | 2/6 | 33
